For this test, the target named is T1, frog TRPV3 (Xenopus tropicalis TRPV3) (Xenopus tropicalis, UniProt F6UZP3).
T1 sequence (F6UZP3 1-773): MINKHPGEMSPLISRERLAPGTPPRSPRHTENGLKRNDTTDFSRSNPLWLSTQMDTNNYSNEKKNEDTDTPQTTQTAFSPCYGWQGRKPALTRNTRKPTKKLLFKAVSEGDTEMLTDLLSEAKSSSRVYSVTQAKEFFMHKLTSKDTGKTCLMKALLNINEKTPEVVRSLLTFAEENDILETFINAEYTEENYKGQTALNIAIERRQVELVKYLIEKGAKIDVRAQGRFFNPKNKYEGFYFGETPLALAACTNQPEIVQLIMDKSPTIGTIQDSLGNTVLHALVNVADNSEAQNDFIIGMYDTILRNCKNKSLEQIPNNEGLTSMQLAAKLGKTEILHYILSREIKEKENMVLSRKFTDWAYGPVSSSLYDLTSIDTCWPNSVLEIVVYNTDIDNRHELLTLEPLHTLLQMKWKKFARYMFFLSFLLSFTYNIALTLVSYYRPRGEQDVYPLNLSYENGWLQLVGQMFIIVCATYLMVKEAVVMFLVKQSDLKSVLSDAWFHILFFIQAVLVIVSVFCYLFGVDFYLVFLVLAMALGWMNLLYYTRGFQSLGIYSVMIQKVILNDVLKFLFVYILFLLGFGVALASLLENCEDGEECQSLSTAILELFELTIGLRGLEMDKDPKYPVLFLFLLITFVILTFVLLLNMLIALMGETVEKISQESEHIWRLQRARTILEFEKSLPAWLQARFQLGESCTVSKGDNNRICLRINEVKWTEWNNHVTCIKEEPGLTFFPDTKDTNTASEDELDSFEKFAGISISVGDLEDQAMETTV
Briefly: whole-cell patch clamp, HEK293, Hill fit of current density. The format is cell-based. In general terms: The patch-clamp technique gives a direct electrical read-out from membranes.

Consider `NCCOB(c1ccccc1)c1ccccc1` [2-APB], for which the EC50 was 269 ± 28 µM.

As usually defined, the EC50 is the concentration that produces a half-maximal response. A lower EC50 goes with an effect from little substance.

These data come from publication PMC4621749 (The Journal of General Physiology, 2015).
